Test results taken from patent US20230133958A1, “COMPOUNDS USEFUL IN MODULATING EGFR AND PI3K” (Mekanistic Therapeutics LLC, priority 2021, published 2023).

Tests used:
Format in all cases: cell-based
BT-549 = test: NCI COMPARE panel (SRB growth inhibition), BT-549; conditions: Homo sapiens; Breast Cancer, BT-549, 48 h
Procedure: (§1) The human tumor cell lines of the cancer screening panel are grown in RPMI 1640 medium containing 5% fetal bovine serum and 2 mM L-glutamine. For a typical screening experiment, cells are inoculated into 96 well microtiter plates in 100 µL at plating densities ranging from 5,000 to 40,000 cells/well depending on the doubling time of individual cell lines. After cell inoculation, the microtiter plates are incubated at 37° C., 5% CO2, 95% air and 100% relative humidity for 24 h prior to addition of experimental drugs.
(§2) After 24 h, two plates of each cell line are fixed in situ with TCA, to represent a measurement of the cell population for each cell line at the time of drug addition (Tz). Experimental drugs are solubilized in dimethyl sulfoxide at 400-fold the desired final maximum test concentration and stored frozen prior to use. […]
(§3) Following drug addition, the plates are incubated for an additional 48 h at 37° C., 5 % CO2, 95% air, and 100% relative humidity. […] Bound stain is subsequently solubilized with 10 mM trizma base, and the absorbance is read on an automated plate reader at a wavelength of 515 nm. […] Using the seven absorbance measurements [time zero, (Tz), control growth, (C), and test growth in the presence of drug at the five concentration levels (Ti)], the percentage growth is calculated at each of the drug concentrations levels. Percentage growth inhibition is calculated as: […]

RXF 393 = test: NCI COMPARE panel (SRB growth inhibition), RXF 393; conditions: Homo sapiens; Renal Cancer, RXF 393, 48 h
Procedure: as §1, §2, §3

NCI/ADR-RES = test: NCI COMPARE panel (SRB growth inhibition), NCI/ADR-RES; conditions: Homo sapiens, Ovarian Cancer, 48 h
Procedure: as §1, §2, §3

OVCAR-3 = test: NCI COMPARE panel (SRB growth inhibition), OVCAR-3; conditions: Homo sapiens; Ovarian Cancer, OVCAR-3, 48 h
Procedure: as §1, §2, §3

NCI-H522 = test: NCI COMPARE panel (SRB growth inhibition), NCI-H522; conditions: Homo sapiens; Non-Small Cell Lung Cancer, NCI-H522, 48 h
Procedure: as §1, §2, §3

IGROV1 = test: NCI COMPARE panel (SRB growth inhibition), IGROV1; conditions: Homo sapiens, IGROV-1; Ovarian Cancer, IGROV1, 48 h
Procedure: as §1, §2, §3

HS 578T = test: NCI COMPARE panel (SRB growth inhibition), HS 578T; conditions: Homo sapiens, Breast Cancer, 48 h
Procedure: as §1, §2, §3

UACC-257 = test: NCI COMPARE panel (SRB growth inhibition), UACC-257; conditions: Homo sapiens; Melanoma, UACC-257, 48 h
Procedure: as §1, §2, §3

HOP-92 = test: NCI COMPARE panel (SRB growth inhibition), HOP-92; conditions: Homo sapiens; Non-Small Cell Lung Cancer, HOP-92, 48 h
Procedure: as §1, §2, §3

NCI-H322M = test: NCI COMPARE panel (SRB growth inhibition), NCI-H322M; conditions: Homo sapiens, Non-Small Cell Lung Cancer, 48 h
Procedure: as §1, §2, §3

PC-3 = test: NCI COMPARE panel (SRB growth inhibition), PC-3; conditions: Homo sapiens; Prostate Cancer, PC-3, 48 h
Procedure: as §1, §2, §3

A498 = test: NCI COMPARE panel (SRB growth inhibition), A498; conditions: Homo sapiens; Renal Cancer, A498, 48 h
Procedure: as §1, §2, §3

SK-MEL-28 = test: NCI COMPARE panel (SRB growth inhibition), SK-MEL-28; conditions: Homo sapiens; Melanoma, SK-MEL-28, 48 h
Procedure: as §1, §2, §3

MDA-MB-231/ATCC = test: NCI COMPARE panel (SRB growth inhibition), MDA-MB-231/ATCC; conditions: Homo sapiens, Breast Cancer, 48 h
Procedure: as §1, §2, §3

SK-MEL-2 = test: NCI COMPARE panel (SRB growth inhibition), SK-MEL-2; conditions: Homo sapiens; Melanoma, SK-MEL-2, 48 h
Procedure: as §1, §2, §3

HCC-2998 = test: NCI COMPARE panel (SRB growth inhibition), HCC-2998; conditions: Homo sapiens; Colon Cancer, HCC-2998, 48 h
Procedure: as §1, §2, §3

NCI-H23 = test: NCI COMPARE panel (SRB growth inhibition), NCI-H23; conditions: Homo sapiens; Non-Small Cell Lung Cancer, NCI-H23, 48 h
Procedure: as §1, §2, §3

MDA-MB-435 = test: NCI COMPARE panel (SRB growth inhibition), MDA-MB-435; conditions: Homo sapiens; Melanoma, MDA-MB-435, 48 h
Procedure: as §1, §2, §3

LOX IMVI = test: NCI COMPARE panel (SRB growth inhibition), LOX IMVI; conditions: Homo sapiens, Melanoma, 48 h
Procedure: as §1, §2, §3

SF-295 = test: NCI COMPARE panel (SRB growth inhibition), SF-295; conditions: Homo sapiens; CNS Cancer, SF-295, 48 h
Procedure: as §1, §2, §3

Structure (SMILES): CS(=O)(=O)Nc1cc(-c2ccc3ncnc(Nc4cccc(Cl)c4F)c3c2)cnc1Cl [Compound 6, N-[2-chloro-5-[4-(3-chloro-2-fluoro-anilino)quinazolin-6-yl]-3-pyridyl] methanesulfonamide]
- GI50 (BT-549): 75 to 125 nM
- GI50 (RXF 393): 75 to 125 nM
- GI50 (NCI/ADR-RES): > 250 nM
- GI50 (OVCAR-3): 75 to 125 nM
- GI50 (NCI-H522): 125 to 250 nM
- GI50 (IGROV1): ≤ 75 nM
- GI50 (HS 578T): ≤ 75 nM
- GI50 (UACC-257): 125 to 250 nM
- GI50 (HOP-92): ≤ 75 nM
- GI50 (NCI-H322M): 125 to 250 nM
- GI50 (PC-3): 125 to 250 nM
- GI50 (A498): ≤ 75 nM
- GI50 (SK-MEL-28): 75 to 125 nM
- GI50 (MDA-MB-231/ATCC): 125 to 250 nM
- GI50 (SK-MEL-2): 125 to 250 nM
- GI50 (HCC-2998): 125 to 250 nM
- GI50 (NCI-H23): 125 to 250 nM
- GI50 (MDA-MB-435): 125 to 250 nM
- GI50 (LOX IMVI): 125 to 250 nM
- GI50 (SF-295): 125 to 250 nM

Structure (SMILES): CS(=O)(=O)Nc1cc(-c2ccc3ncc(C#N)c(Nc4cccc(Cl)c4F)c3c2)cnc1Cl [Compound 10, N-[2-chloro-5-[4-(3-chloro-2-fluoro-anilino)-3-cyano-6-quinolyl]-3-pyridyl]methanesulfonamide]
- GI50 (BT-549): ≤ 75 nM
- GI50 (RXF 393): ≤ 75 nM
- GI50 (NCI/ADR-RES): > 250 nM
- GI50 (OVCAR-3): > 250 nM
- GI50 (NCI-H522): > 250 nM
- GI50 (IGROV1): 75 to 125 nM
- GI50 (HS 578T): ≤ 75 nM
- GI50 (UACC-257): > 250 nM
- GI50 (HOP-92): ≤ 75 nM
- GI50 (NCI-H322M): > 250 nM
- GI50 (PC-3): 125 to 250 nM
- GI50 (A498): ≤ 75 nM
- GI50 (SK-MEL-28): 125 to 250 nM
- GI50 (MDA-MB-231/ATCC): > 250 nM
- GI50 (SK-MEL-2): ≤ 75 nM
- GI50 (HCC-2998): > 250 nM
- GI50 (NCI-H23): 125 to 250 nM
- GI50 (MDA-MB-435): 125 to 250 nM
- GI50 (LOX IMVI): 75 to 125 nM
- GI50 (SF-295): 125 to 250 nM
